Results reported in ChEMBL document CHEMBL1201862, “PubChem BioAssay data set” (2004).
Active and inactive are the calls of the source.

Key:
[1] = biological target: T1, Melanin-concentrating hormone receptor 1 (Homo sapiens, UniProt Q99705); experiment: Fluorescence-based counterscreen for antagonists of the G-protein coupled receptor 7 (GPR7): cell-based high throughput dose response assay to identify antagonists of the melanin-concentrating hormone receptor 1 (MCHR1).; format: functional
[2] = biological target: T1, Melanin-concentrating hormone receptor 1; experiment: Late-stage fluorescence-based counterscreen for antagonists of the G-protein coupled receptor 7 (GPR7): cell-based dose response assay to identify antagonists of the melanin-concentrating hormone receptor 1 (MCHR1). [Related pubchem assays (depositor defined):AID1861, AID1880, AID1952, AID2148, AID2251, AID2257, AID485339]; format: functional
[3] = biological target: T2, Corticotropin-releasing factor receptor 2/Corticotropin-releasing factor-binding protein (Homo sapiens, UniProt P24387+Q13324); experiment: activators of CRF receptor 2 with binding protein – uHTS hits, confirmation (AID 602473); format: functional; settings: read-out: EC50_Mean
T2 sequence (Q13324 whole entry): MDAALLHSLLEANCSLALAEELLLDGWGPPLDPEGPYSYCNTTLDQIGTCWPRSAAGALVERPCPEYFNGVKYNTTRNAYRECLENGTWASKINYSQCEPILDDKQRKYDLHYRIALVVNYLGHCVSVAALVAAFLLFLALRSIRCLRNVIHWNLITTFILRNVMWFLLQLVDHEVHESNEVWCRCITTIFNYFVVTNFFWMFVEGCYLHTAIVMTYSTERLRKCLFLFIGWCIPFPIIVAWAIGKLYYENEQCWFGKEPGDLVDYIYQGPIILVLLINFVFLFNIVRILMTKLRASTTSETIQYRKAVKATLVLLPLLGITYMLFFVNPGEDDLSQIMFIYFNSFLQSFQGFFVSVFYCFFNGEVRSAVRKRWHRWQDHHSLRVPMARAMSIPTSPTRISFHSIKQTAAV
T2 sequence (P24387 whole entry): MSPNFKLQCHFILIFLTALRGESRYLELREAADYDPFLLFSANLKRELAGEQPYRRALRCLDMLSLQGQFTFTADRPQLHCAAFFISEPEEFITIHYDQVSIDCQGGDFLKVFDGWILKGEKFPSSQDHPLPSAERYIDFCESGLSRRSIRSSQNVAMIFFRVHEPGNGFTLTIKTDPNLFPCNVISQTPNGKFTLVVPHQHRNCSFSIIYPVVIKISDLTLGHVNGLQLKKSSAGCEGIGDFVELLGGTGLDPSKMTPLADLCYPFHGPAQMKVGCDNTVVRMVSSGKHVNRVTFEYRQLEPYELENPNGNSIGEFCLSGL

[4] = biological target: T3, Neuropeptides B/W receptor type 1 (Homo sapiens, UniProt P48145); experiment: Fluorescence-based dose response cell-based high throughput screening assay to identify antagonists of the G-protein coupled receptor 7 (GPR7). [Related pubchem assays: 1952 (Screening assay (GPR7 antagonists).), 1880 (Summary AID.)]; format: functional
T3 sequence (P48145 whole entry): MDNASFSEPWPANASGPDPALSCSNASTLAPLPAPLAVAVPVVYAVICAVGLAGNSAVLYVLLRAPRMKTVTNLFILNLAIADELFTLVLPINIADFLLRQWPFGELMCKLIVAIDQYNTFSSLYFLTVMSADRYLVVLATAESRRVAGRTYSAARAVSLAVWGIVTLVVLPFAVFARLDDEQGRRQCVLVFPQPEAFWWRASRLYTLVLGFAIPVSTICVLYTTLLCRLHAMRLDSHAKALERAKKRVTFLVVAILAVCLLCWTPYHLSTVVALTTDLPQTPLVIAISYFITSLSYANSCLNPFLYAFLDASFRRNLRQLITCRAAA

[5] = biological target: T3, Neuropeptides B/W receptor type 1; experiment: GPR7 antagonist potency, late-stage follow-up, cell-based, fluorescence, dose response (AID 463251); format: functional
[6] = biological target: T4, Alkaline phosphatase, tissue-nonspecific isozyme (Homo sapiens, UniProt P05186); experiment: TNAP enzyme activators, dose response, selectivity assay for human IAP activator project, biochemical, TNAP isozyme, human IAP uHTS hits (AID 488886); format: functional;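 further: potency of compounds raising TNAP activity as a selectivity check on IAP activators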
T4 sequence (P05186 whole entry): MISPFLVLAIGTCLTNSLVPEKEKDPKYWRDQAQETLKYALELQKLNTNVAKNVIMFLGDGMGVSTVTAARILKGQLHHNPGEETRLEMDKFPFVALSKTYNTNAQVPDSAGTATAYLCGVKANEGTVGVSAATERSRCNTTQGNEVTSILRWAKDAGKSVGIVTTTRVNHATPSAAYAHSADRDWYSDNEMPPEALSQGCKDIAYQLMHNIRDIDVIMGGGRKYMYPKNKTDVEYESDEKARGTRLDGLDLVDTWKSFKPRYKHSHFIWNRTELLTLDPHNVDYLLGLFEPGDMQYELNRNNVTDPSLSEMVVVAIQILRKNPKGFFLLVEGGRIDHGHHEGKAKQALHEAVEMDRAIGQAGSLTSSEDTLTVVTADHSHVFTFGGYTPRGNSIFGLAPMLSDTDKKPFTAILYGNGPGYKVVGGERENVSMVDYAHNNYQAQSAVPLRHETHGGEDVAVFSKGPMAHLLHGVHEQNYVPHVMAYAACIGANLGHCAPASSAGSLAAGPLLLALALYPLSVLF

[7] = biological target: Intestinal-type alkaline phosphatase (Mus musculus, UniProt P24822); experiment: PubChem AID 488875; format: functional
Intestinal-type alkaline phosphatase (Mus musculus, UniProt P24822), sequence (P24822 whole entry): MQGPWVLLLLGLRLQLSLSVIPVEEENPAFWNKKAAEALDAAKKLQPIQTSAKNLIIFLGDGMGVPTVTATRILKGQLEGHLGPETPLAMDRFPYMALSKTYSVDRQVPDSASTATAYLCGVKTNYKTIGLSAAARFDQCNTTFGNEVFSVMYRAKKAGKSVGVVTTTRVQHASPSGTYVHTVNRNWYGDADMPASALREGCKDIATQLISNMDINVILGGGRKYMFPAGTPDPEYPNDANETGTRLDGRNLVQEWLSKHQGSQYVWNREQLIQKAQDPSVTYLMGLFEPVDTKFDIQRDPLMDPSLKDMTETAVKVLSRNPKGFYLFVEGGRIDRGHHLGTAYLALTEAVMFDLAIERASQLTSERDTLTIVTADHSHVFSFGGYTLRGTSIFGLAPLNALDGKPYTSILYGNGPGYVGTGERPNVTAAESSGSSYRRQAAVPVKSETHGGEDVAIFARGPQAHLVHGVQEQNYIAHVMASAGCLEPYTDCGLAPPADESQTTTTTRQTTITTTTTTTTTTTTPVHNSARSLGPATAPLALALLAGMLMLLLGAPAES

[8] = biological target: T5, Intestinal-type alkaline phosphatase (Homo sapiens, UniProt P09923); experiment: human intestinal alkaline phosphatase activators, dose response, biochemical, luminescence, uHTS hits (AID 463120); format: functional
T5 sequence (P09923 whole entry): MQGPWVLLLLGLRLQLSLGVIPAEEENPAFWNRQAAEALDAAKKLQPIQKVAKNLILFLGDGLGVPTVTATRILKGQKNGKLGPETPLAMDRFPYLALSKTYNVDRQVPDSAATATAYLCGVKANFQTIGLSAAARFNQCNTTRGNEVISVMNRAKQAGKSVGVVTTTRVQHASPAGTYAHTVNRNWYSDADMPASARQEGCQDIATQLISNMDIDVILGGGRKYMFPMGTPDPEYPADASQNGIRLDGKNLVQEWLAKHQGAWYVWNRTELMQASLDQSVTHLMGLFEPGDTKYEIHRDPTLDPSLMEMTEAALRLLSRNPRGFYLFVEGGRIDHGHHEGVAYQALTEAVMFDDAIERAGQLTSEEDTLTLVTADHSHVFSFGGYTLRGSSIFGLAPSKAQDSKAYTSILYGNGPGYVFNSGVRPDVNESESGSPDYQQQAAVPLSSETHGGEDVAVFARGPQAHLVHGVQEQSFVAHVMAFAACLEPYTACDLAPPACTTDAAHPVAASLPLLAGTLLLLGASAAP

[9] = biological target: T5, Intestinal-type alkaline phosphatase; experiment: human IAP activators, dose response, biochemical, luminescent, uHTS hits, set 2 (AID 488817); format: functional;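 further: potency of activators that raise enzyme activity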
[10] = biological target: T6, Protein RecA (Mycobacterium tuberculosis, UniProt P9WHJ3); experiment: Fluorescence Cell-Free Homogeneous Dose Retest to Identify Inhibitors of RecA-Intein Splicing Activity. [Related pubchem assays (depositor defined):AID2097, AID2223, AID489010, AID492950]; format: functional
T6 sequence (P9WHJ3 whole entry): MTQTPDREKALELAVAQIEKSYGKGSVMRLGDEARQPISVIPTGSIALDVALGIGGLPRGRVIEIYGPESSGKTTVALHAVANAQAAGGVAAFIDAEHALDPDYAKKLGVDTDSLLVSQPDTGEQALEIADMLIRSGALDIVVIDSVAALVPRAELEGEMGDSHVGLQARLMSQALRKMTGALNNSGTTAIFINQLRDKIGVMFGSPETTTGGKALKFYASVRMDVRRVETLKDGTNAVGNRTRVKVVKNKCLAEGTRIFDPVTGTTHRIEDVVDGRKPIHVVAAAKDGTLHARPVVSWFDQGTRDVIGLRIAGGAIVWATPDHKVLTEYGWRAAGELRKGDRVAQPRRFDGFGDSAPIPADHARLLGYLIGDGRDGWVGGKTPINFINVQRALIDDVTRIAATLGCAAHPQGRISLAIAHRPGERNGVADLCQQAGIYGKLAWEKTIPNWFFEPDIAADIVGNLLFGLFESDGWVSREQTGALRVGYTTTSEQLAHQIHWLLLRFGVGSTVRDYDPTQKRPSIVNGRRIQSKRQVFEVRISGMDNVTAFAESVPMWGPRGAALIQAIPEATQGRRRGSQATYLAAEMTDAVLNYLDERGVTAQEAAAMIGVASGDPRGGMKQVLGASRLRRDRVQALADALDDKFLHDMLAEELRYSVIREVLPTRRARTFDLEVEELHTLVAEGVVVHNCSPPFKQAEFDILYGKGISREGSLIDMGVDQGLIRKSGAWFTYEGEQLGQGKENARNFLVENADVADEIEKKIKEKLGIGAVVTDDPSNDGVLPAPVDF

[11] = biological target: T7, Replicative DNA helicase DnaB (Mycobacterium tuberculosis, UniProt P9WMR3); experiment: DnaB intein splicing inhibitors, dose response, biochemical, cell-free fluorescence (AID 449749); format: functional
T7 sequence (P9WMR3 whole entry): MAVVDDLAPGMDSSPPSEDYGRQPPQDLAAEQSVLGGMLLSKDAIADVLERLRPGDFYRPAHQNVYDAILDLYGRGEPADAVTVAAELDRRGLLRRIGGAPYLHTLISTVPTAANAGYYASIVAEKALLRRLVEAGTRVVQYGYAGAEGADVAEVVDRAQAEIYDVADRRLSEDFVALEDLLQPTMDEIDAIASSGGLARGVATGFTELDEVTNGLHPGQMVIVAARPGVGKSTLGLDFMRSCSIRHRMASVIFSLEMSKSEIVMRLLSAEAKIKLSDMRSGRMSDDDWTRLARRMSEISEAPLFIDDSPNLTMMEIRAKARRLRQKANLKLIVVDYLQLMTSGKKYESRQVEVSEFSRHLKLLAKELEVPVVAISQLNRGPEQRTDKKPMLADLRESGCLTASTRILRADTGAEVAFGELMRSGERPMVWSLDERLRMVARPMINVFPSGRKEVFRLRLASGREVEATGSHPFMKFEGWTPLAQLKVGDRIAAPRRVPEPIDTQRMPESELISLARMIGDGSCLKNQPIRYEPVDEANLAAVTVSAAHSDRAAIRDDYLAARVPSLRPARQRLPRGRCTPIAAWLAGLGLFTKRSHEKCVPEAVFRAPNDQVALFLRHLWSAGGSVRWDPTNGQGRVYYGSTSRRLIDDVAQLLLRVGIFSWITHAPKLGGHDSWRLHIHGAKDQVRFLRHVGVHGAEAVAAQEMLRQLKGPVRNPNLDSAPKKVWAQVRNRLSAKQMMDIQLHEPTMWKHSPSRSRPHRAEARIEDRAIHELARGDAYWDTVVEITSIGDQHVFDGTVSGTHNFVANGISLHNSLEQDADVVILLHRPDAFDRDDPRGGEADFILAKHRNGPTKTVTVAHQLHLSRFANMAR

[12] = Intein inhibitors as potential Tuberculosis drugs, a cytotoxicity screen. [Related pubchem assays (depositor defined):AID2221, AID2223, AID434968, AID435010, AID449749, AID449750, AID489010]; format: functional
[13] = cytotoxicity in HEK-293T cells, dose response, cytotoxicity control for TCR NF-kB inhibitor project, luminescence, T-cell screen hits (AID 489026); format: functional, cell-based;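 further: cells exposed to compound about 14 hours before the viability readout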
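Wherever CC50 is given: cells exposed to compound for 72 hours before luminescence readout.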

T1 sequence (Q99705 whole entry): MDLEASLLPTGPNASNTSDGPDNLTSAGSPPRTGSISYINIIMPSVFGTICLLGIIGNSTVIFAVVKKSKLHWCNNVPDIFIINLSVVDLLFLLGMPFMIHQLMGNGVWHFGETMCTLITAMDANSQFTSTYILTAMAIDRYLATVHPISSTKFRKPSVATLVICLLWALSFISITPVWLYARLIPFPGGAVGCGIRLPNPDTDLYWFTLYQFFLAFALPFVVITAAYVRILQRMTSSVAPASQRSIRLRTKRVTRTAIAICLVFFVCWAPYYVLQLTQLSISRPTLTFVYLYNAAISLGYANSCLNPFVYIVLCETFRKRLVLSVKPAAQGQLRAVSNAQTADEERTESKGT

Compound: COc1ccccc1-n1c(SCC(N)=O)nnc1-c1ccc(S(=O)(=O)N2CCCCC2)cc1
- IC50 [1]: > 43.8 µM (not active)
- IC50 [2]: > 20 µM (inactive)
- EC50 [3]: 12.7 µM (active)
- IC50 [4]: 5.36 µM (active)
- IC50 [5]: > 20 µM (inactive)

Compound: Cc1cc(C(=O)NC2CC(C)(C)Cc3c2cnn3-c2ccccc2)[nH]n1 (stereo not drawn)
- EC50 [6]: 48.2 µM (active)
- EC50 [7]: 55.1 µM (active)
- EC50 [8]: 70.7 µM (active)
- EC50 [9]: 45.5 µM (active)

Compound: CC(C)(C)c1csc(Sc2ccc([N+](=O)[O-])cn2)n1
- EC50 [10]: 1.75 µM (active)
- AC50 [11]: 2.54 µM (active)
- CC50 [12]: > 40 µM (active)
- IC50 [13]: > 80 µM (inactive)
